Data as given in publication PMC5011688, “Polysaccharide enhances Radix Saposhnikoviae efficacy through inhibiting chromones decomposition in intestinal tract” (Scientific Reports, 2016).
Like-named read-outs stand apart in the source and are kept apart here. One block for each compound: values may come before it.

Columns and labels:
[1] = Metabolism study of PGCN and GML in simulated gastric fluid (SGF); type: in vitro ADME; settings: SGF pH 1.2, 37 °C, 2 h
Description: (§1) Simulated gastric fluid (SGF, pH 1.2) and simulated intestinal fluid (SIF, pH 6.8) were prepared based on Chinese Pharmacopeia (2010) and have been depicted previously. 100 μg PGCN or GML was added to 4 ml of either SGF or SIF to yield 4 reaction systems, i.e., PGCN/SGF (213.47 nM), PGCN/SIF (213.47 nM), GML/SGF (220.99 nM), GML/SIF (220.99 nM), respectively. Polysaccharides extracted in RS were added to these 4 reaction systems in accordance with the actual chromone-polysaccharide proportion, with each reaction further became three sub-systems, i.e., 0 polysaccharide/chrome, 1/2 polysaccharide/chromone, and pan-polysaccharide/chromone. Meanwhile, these 12 systems were allowed to react at 37 °C. Following 2 h, the reaction was stopped by 100 °C boiling for 10 min. Subsequently, these systems were evaporated to dryness and the residue was reconstituted in 1 ml methanol. After centrifugation at 3,000 rpm for 10 min, the supernatant was collected and used for HPLC analysis.

[2] = Metabolism study of PGCN and GML in simulated intestinal fluid (SIF); type: in vitro ADME; settings: SIF pH 6.8, 37 °C, 2 h
Description: as §1

[3] = Transport of chromones across semi-permeable membrane (dialysis bag) with or without RS polysaccharide; type: physicochemical; settings: 6 h; for total chromone: inside plus outside the membrane; for total chromone / Fluid inside the semi-permeable membrane, chromone / Fluid outside the semi-permeable membrane, chromone: pH 7.8, 37 °C; for Fluid inside the semi-permeable membrane, chromone / Fluid outside the semi-permeable membrane, chromone: sum of PGCN and cimifugin
Description: Dialysis bags made by semi-permeable membrane materials were used in this analysis. ~3 cm long dialysis bags were first processed as the following procedures in succession: 1) boiled for 5 min in distilled water; 2) rinsed by 60 °C water for 2 min; 3) rinsed by small intestine buffer for 2 min; 4) rinsed by small intestine buffer for 2 min; 5) immersed in buffer at 4 °C. After 12 h, these processed dialysis bags were tied tightly at one end to form a dialysis bag. 1 ml small intestine buffer (pH 7.8) containing cimifugin, PGCN, cimifugin + polysaccharide, or PGCN + polysaccharide was added into this bag and a glass bead was put in to keep this bag vertical. When the other end was tied (an air bubble was retained), this dialysis bag was suspended in 15 ml small intestine buffer. This system was left to stand for 6 h in 37 °C water bath and chromone content inside and outside of this semi-permeable membrane was measured by HPLC analysis.

[4] = Pharmacokinetic measurement of chromone (cimifugin in rat plasma after oral chromone extracts); type: in vivo, Sprague-Dawley rats; settings: for Tmax: male, Sprague-Dawley, rat, plasma, po, 4 g crude drug/kg, oral chromone extracts 4 g crude drug/kg for 5 days, plasma HPLC
Description: To explore the influence of RS polysaccharide on the pharmacokinetics of chromones, 2.11 g, 1.05 g RS polysaccharide, and 2.11 g glucuronic acid were added to the three aliquots of chromone components, with one aliquot left as control. Thus, totally four test compounds were obtained, including chromone/pan-polysaccharide (CP), chromone/1/2polysaccharide (CHP), chromone/glucuronic acid (CG), and chromone, which served as control. Forty male Sprague-Dawley rats were used in this experiment. They were randomly divided into 4 groups, each consisting of 10 rats. The rats in these four groups were orally administered with CP, CHP, CG and chromones at the dose of 4 g crude drug (equivalent to 10 ml RS extracts) per kg body weight, respectively for five consecutive days. After the final drug delivery of day 5 (at 0.5, 1, 1.5, 2, 3, 5, 8, 12, 16, and 24 h/day), rats were anesthetized by ether inhalation and rat blood samples were obtained from the orbit vein and centrifuged immediately at 3,000 rpm for 10 min to yield plasma. Each plasma sample (100 μl) was mixed with 20 μl of 70% perchloric acid and vortexed and centrifuged at 3,000 rpm for 10 min. The supernatant were subjected to 0.45 μm microporous membrane and the filtrate was collected for subsequent high performance liquid chromatography (HPLC) analysis. Chromatographic separation and analysis using an L-2000 Elite HPLC system has been previously reported. Briefly, the separation of the analytes were performed on a Kromasil C18 column (200 mm × 4.6 mm i.d., particle size 5 μm), equipped with a Shim-pack security guard column at a column temperature of 25 °C. The binary mobile phase consisted of methanol and water. A flow rate of 1.0 ml/min with a gradient elution program as follows: 40–45% methanol at 0–5 min; 45–60% methanol at 5–10 min; 60–80% methanol at 10–15 min; 80–95% methanol at 15–20 min; 95–40% methanol at 20–30 min. The injection volume was 20 μl and detection wavelength was kept at 254 nm.

[5] = Transformation of cimifugin in small intestine enzyme solution; type: in vitro ADME, Sprague-Dawley rats; settings: 38 °C
Description: Small intestine segment was taken from ten 12 h-fasting male Sprague-Dawley rats. The intestine tissue was first frozen at −80 °C for 12 h, and then ground and centrifuged at 10,000 rpm for 10 min. The supernatant constituted the enzyme solution used in the experiment. To explore the influence of RS polysaccharide on the metabolism of cimifugin, three groups were designed: control group containing 40 μg cimifugin in 1.2 ml enzyme solution; RS polysaccharide/cimifugin group containing 40 μg cimifugin and 8.7 mg RS polysaccharide in 1.2 ml enzyme solution; glucuronic acid/cimifugin group containing 40 μg cimifugin and 8.7 mg glucuronic acid in 1.2 ml enzyme solution. These groups were put in 38 °C water bath for reaction, while samples were taken at 15 and 30 min. After deproteinization by methanol, these samples were centrifuged at 10,000 rpm for 10 min. Subsequently, the supernatant was collected and analyzed for HPLC analysis as described above.

Caco-2 cell monolayers = experiment: Caco-2 bidirectional transport assay of cimifugin; type: in vitro ADME; settings: for effect on flux/transport of cimifugin across Caco-2 monolayers: pretreatment or co-application with cimifugin, A→B flux, similar for B→A
Description: Caco-2 cells were obtained from the American Type Culture Collection (ATCC). […] For the permeability test, cells were seeded in transwell supports with polycarbonate membrane (0.4 μm, 1.12 cm^2, Corning Costar) at a density of 6 × 10^4 cells/cm^2. The integrity of the monolayers was tested by measuring the transepithelial electrical resistance (TEER) before and after every experiment. Only monolayers with TEER >200 Ω/cm^2 were used. Test compounds in transport buffer were added to the donor compartments of either apical (A → B) or basolateral (B → A) wells of the Insert System and incubated at 37 °C. Samples were collected at 0, 30, 60, 90, 120, and 150 min time points and analyzed for HPLC analysis of content of cimifugin as described above.

[6] = small intestine buffer pH 7.8, 37 °C, mean ± SD, n = 10
[7] = apical application (A→B), A: cimifugin, B: polysaccharide, C: LY335979, D: troleandomycin, mean ± SD, n = 10
[8] = basolateral application (B→A), A: cimifugin, B: polysaccharide, C: LY335979, D: troleandomycin, mean ± SD, n = 10

HPLC peak area, PGCN ([2]; mean ± SD, n = 10): 5159 ± 1238
total chromone [3]: 105.0 ± 0.1 nmol
Fluid inside the semi-permeable membrane, PGCN [3, 6]: 15.2 ± 0.5 nmol
Fluid outside the semi-permeable membrane, PGCN [3, 6]: 89.8 ± 0.4 nmol
Fluid inside the semi-permeable membrane, chromone [3]: 15.2 ± 0.5 nmol
Fluid outside the semi-permeable membrane, chromone [3]: 89.8 ± 0.4 nmol
Structure (SMILES): COc1c2c(cc3oc(COC4OC(CO)C(O)C(O)C4O)cc(=O)c13)OC(C(C)(C)O)C2 (centres unmarked) [PGCN, prime-O-glucosylcimifugin]
transformation in SGF (in words) [1]: a small amount of PCGN was converted into cimifugin
transformation in SIF (in words) [2]: an overwhelmingly large amount of PGCN was transformed into cimifugin

Tmax ([4]; read-out: Tmax of cimifugin in rat plasma (first peak of double-peak curve)): 1.5 h
Tmax ([4]; read-out: Tmax of cimifugin in rat plasma (second peak of double-peak curve)): 8 h
detection in plasma of chromone treated rats (HPLC qualitative analysis) ([4]; whole process of the experiment, data not shown): only cimifugin was detected
stability in small intestine enzyme solutions (in words) ([5]; rat small intestine enzyme solution): underwent degradation to a great extent
Basolateral content of cimifugin, 30 min (Caco-2 cell monolayers; [7]): 15.21 ± 2.34 ng
Basolateral content of cimifugin, 60 min (Caco-2 cell monolayers; [7]): 30.85 ± 3.64 ng
Basolateral content of cimifugin, 90 min (Caco-2 cell monolayers; [7]): 143.92 ± 12.32 ng
Basolateral content of cimifugin, 120 min (Caco-2 cell monolayers; [7]): 236.01 ± 22.86 ng
Basolateral content of cimifugin, 150 min (Caco-2 cell monolayers; [7]): 201.33 ± 15.32 ng
Apical content of cimifugin, 30 min (Caco-2 cell monolayers; [8]): 26.87 ± 1.54 ng
Apical content of cimifugin, 60 min (Caco-2 cell monolayers; [8]): 50.45 ± 2.27 ng
Apical content of cimifugin, 90 min (Caco-2 cell monolayers; [8]): 234.35 ± 11.36 ng
Apical content of cimifugin, 120 min (Caco-2 cell monolayers; [8]): 354.24 ± 15.47 ng
Apical content of cimifugin, 150 min (Caco-2 cell monolayers; [8]): 289.46 ± 15.45 ng
total chromone [3]: 161.7 ± 0.5 nmol
Fluid inside the semi-permeable membrane, cimifugin [3, 6]: 18.1 ± 0.6 nmol
Fluid outside the semi-permeable membrane, cimifugin [3, 6]: 143.6 ± 0.1 nmol
Fluid inside the semi-permeable membrane, chromone [3]: 18.1 ± 0.6 nmol
Fluid outside the semi-permeable membrane, chromone [3]: 143.6 ± 0.1 nmol
Structure (SMILES): COc1c2c(cc3oc(CO)cc(=O)c13)O[C@H](C(C)(C)O)C2 [cimifugin]

transformation in SGF (in words) [1]: a little GML was converted into PGCN
HPLC peak area, GML ([1]; mean ± SD, n = 10): 1369608 ± 83550
transformation in SIF (in words) [2]: underwent no change
HPLC peak area, GML ([2]; mean ± SD, n = 10): 1369720 ± 112480
Structure (SMILES): COc1c2c(cc3oc(C)cc(=O)c13)OC(C(C)(C)OC1OC(CO)C(O)C(O)C1O)C2 [GML, 4′-O-β-D-glucosyl-5-O-methylvisamminol]

effect on absorption of chromone in the form of cimifugin (AUC at 3 h and later) ([4]; co-administered orally with chromone extract, rat plasma): did not affect
Structure (SMILES): O=C[C@H](O)[C@@H](O)[C@H](O)[C@H](O)C(=O)O [glucuronic acid, Glucuronic acid, reference compound]
effect on cimifugin degradation / transformation into PGCN in small intestine enzyme solutions (in words) ([5]; added to cimifugin in enzyme solution): did not produce any effect on cimifugin transformation

effect on flux/transport of cimifugin across Caco-2 monolayers (Caco-2 cell monolayers): significantly enhanced
Structure (SMILES): CO[C@H]1C[C@H](O[C@H]2[C@H](C)[C@@H](O[C@@H]3O[C@H](C)C[C@H](N(C)C)[C@H]3OC(C)=O)[C@@H](C)C[C@@]3(CO3)C(=O)[C@H](C)[C@@H](OC(C)=O)[C@@H](C)[C@@H](C)OC(=O)[C@@H]2C)O[C@@H](C)[C@@H]1OC(C)=O [troleandomycin, Troleandomycin, reference compound]

effect on flux/transport of cimifugin across Caco-2 monolayers (Caco-2 cell monolayers): not affected
Structure (SMILES): Cl.Cl.Cl.O[C@@H](COc1cccc2ncccc12)CN1CCN([C@@H]2c3ccccc3[C@@H]3[C@H](c4ccccc42)C3(F)F)CC1 [LY335979, Zosuquidar Trihydrochloride, reference compound]
